According to US7166695B2, “Affinity markers for human serum albumin” (ConjuChem Biotechnologies Inc., priority 1997, dated 2007):
Where a SMILES comes first, the peptide text is derived from it. [ ]: non-standard residue; d: D form. The star is where a group is joined. X1 = O=C1N[C@H]2[C@H](CS[C@H]2CCCCC(=O)Oc2ccc(C(=O)*)cc2)N1; Benzoyl(4-OH) = O=C(c1ccc(O)cc1)*

How the values were obtained:
pig albumin = target: T1, pig albumin (Sus scrofa, UniProt P08835); test: Biotinylation of whole blood; SDS-PAGE and immunoblot with peroxidase labeled streptavidin; type: biochemical; settings: samples of whole blood
T1 construct: Whole blood was incubated with biotin ester for 1 h at room temperature, then plasma was extracted by centrifugation; from tissue; host or cells: pig whole blood
T1 sequence (P08835 25-607): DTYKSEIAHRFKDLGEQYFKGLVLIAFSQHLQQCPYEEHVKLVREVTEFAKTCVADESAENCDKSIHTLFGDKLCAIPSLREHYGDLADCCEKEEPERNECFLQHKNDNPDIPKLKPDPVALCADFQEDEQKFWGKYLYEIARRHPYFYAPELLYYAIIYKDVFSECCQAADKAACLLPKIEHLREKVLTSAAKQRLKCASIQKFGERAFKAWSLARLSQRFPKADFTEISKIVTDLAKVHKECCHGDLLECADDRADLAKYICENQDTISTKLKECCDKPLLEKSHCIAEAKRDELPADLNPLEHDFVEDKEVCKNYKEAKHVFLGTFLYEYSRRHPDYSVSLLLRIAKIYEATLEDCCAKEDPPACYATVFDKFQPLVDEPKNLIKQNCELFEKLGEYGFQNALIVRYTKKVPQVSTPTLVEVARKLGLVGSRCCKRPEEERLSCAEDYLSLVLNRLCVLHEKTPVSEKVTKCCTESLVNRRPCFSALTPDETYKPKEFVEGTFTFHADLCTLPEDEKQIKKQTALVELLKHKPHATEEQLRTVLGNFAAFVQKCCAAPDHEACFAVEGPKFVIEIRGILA

HSA [1] = target: T2, HSA (Homo sapiens, UniProt P02768); test: Kinetic study by ELISA capture in human plasma; type: biochemical; settings: 100 μM in human plasma, RT, 0-60 min
Method: The samples were then allowed to incubate at RT for 0, 5, 10, 15, 30 and 60 min, when 5 μL of each sample was diluted with 295 μL PBS and kept at −20° C. before use. The samples were then diluted to 2 μg/mL using PBS and transferred to an ELISA plate previously coated with polyclonal anti-human serum albumin (procedure described above). The plates were then rinsed with PBS-Tween 20 (0.05%) three times, and then with PBS. Goat polyclonal anti-biotin (Pierce) (1:200, v/v, in PBS containing 0.05% BSA) was then added to the plates, allowed to incubate for 1 h at RT, rinsed with PBS-Tween 20 (0.05%) three times, and then with PBS. The plates were then treated with 100 μL of peroxidase-conjugated rabbit anti-goat IgG (Jackson Immuno Research) diluted 1/100,000 with PBS for 20 min at RT. The plates were then rinsed with PBS-Tween 20 (0.05%) three times, and then with PBS. […] The plates were then read on a SpectraMax 250 at λ 490 nm.
At each time mentioned in the figure, 2 μg/mL of each sample was captured on an ELISA plate initially coated with polyclonal anti-HSA, treated with goat polyclonal anti-biotin, followed by peroxidase conjugated rabbit anti-goat IgG and OD read at 490 nm using SpectraMax 250.

[2] = Hydrolysis in PBS followed by HPLC; type: physicochemical; settings: pH 7.4, RT (FIG. 13), read-out: half-life of hydrolysis of the phenol ester (converted)
From the text: (§1) The chromatograms were each integrated using identical data parameters and resulting calculated areas under each peak converted to concentrations and plotted against time.

commercial human plasma = test: Kinetic studies using HPLC, reaction in commercial human plasma; type: biochemical; settings: 100 μM in commercial human plasma
Method: as §1
FIG. 12 plots the rate of appearance of the leaving group, HO-Ph-CO-FlYEE-NH2, vs. time (seconds) as a result of the reaction of 100 μM biotin-OPh-CO-FlYEE-NH2 in commercial human plasma. Due to overlapping peaks in the HPLC chromatogram, the rate of disappearance of biotin-OPh-CO-FlYEE-NH2 cannot be determined.

dog albumin = target: T3, dog albumin (Canis lupus familiaris, UniProt P49822); test: Biotinylation of whole blood; SDS-PAGE and immunoblot with peroxidase labeled streptavidin; type: biochemical; settings: samples of whole blood
T3 construct: Whole blood was incubated with biotin ester for 1 h at room temperature, then plasma was extracted by centrifugation; from tissue; host or cells: dog whole blood
T3 sequence (P49822 25-608): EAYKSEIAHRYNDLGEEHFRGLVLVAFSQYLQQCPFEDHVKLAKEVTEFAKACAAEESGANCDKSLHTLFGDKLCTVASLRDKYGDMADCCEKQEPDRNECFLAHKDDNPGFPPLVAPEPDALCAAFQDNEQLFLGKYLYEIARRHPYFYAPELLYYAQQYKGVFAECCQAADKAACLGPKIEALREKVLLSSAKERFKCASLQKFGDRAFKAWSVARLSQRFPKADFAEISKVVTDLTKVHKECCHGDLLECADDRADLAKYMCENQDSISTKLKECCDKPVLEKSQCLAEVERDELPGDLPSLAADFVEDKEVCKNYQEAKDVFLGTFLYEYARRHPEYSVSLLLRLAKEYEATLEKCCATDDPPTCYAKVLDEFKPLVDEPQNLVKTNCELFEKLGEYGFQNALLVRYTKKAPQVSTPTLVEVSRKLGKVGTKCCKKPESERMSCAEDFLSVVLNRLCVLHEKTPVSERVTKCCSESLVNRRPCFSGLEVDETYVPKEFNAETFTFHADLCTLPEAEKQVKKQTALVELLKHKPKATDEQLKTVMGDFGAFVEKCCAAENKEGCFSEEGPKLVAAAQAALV

fraction V HSA [3] = target: T4, fraction V HSA (Homo sapiens, UniProt P02768); test: Kinetic studies using HPLC, reaction with fraction V HSA in PBS; type: biochemical; settings: 100 μM compound and 600 μM HSA in PBS
T4 construct: purchased Calbiochem
From the text: as §1
FIG. 11 plots the rate of disappearance of biotin-OPh-CO—NH2 vs. time and the rate of appearance of the leaving group, HO-Ph-CO—NH2, vs. time.
Due to overlapping peaks in the HPLC chromatogram, the rate of disappearance of biotin-OPh-CO-FlYEE-NH2 cannot be determined.

fraction V HSA [4] = target: T4, fraction V HSA; test: Competition ELISA test; type: binding
Method: A solution of 100 μL rabbit polyclonal anti-human serum albumin. (Boehringer) diluted at 1/5000 in PBS was coated overnight at 4° C. onto ELISA plates (Nunc). These plates were then saturated with 5% BSA (Sigma) in PBS for 2 h at RT. For the competition test, varying concentrations of HO-Ph-CO-FlYEE-NH2, 44 μM biotin-OPh-CO-FlYEE-NH2, and 15 μM of fraction V HSA were incubated for 1 h at 37° C. To assess the ability of biotin-OPh-CO-FlYEE-NH2 to displace HO-Ph-CO-FlYEE-NH2, varying concentrations of HO-Ph-CO-FlYEE-NH2 were incubated with HSA for 1 h at 37° C., then 44 μM of biotin-OPh-CO-FlYEE-NH2 was added and allowed to incubate at 37° C. for 1 h. The reaction mixtures were then centrifuged through 30 kDa Centricon tubes (Sarthorious) to a volume of 50 μL, diluted with 500 μL of PBS, then re-concentrated to 50 μL. This process was then repeated and transferred to the ELISA plate previously coated with polyclonal anti-human serum albumin (procedure described above). These plates were then rinsed with PBS-Tween 20 (0.05%) three times, then with PBS. Peroxidase-labeled streptavidin (1:500, v/v, in PBS containing 0.05% BSA) was then added to the plates, allowed to incubate for 20 min at RT, rinsed with PBS-Tween 20 (0.05%) three times, and then with PBS. […] The plates were then read on a SpectraMax 250 at λ 490 nm.
FIG. 8 plots optical density as a function of the concentration of HO-Ph-CO-FlYEE-NH2. […] The HSA was captured on an ELISA plate initially coated with polyclonal anti-HSA, treated with peroxidase labeled streptavidin and OD read at 490 nm using SpectraMax 250.
In these experiments, solutions of 0 to 50 molar excess HO-Ph-CO-FlYEE-NH2 and 15 μM fraction V HSA were incubated for 1 h at RT when 44 μM of biotin-OPh-CO-FlYEE-NH2, was added and reaction incubated for 1 h at 37° C. The HSA was captured on an ELISA plate initially coated with polyclonal anti-HSA, treated with peroxidase labeled streptavidin and OD read at 490 nm using SpectraMax 250.

HSA [5] = target: T2, HSA; test: Mass spectral analysis of tryptic digest of HSA:LC-biotin; settings: HPLC peaks at 78 and 85 min
Method: LC-biotin is biotin-NH—(CH2)5—C(O)—.
The specificity with which biotin-OPh-CO-FlYEE-NH2 reacts with a specific lysine residue on HSA was determined by mass spectral analysis of a tryptic digest of LC-biotin conjugated to HSA by LC-biotin-OPh-CO-FlYEE-NH2 (FIG. 15). Using LC -biotin-OPh-CO-FlYEE-NH2 instead of biotin-OPh-CO-FlYEE-NH2 facilitated a larger mass separation in the mass spectrum and identification of HSA from HSA:LC-biotin. […] This mass accounts only for the addition of one LC-biotin and since the fragment at 78 min contains only one Lys residue and LC-biotin is attached to it, and this peptide sequence contains the previous sequence, the only lysine residue in this sequence where biotin could be attached is Lys519.

[6] = target: human serum albumin (HSA) (Homo sapiens, UniProt P02768); test: Biotinylation of whole blood, plasma or serum; SDS-PAGE and immunoblot with peroxidase labeled streptavidin; settings: 100 or 600 μM, 1 h at 37° C.
Method: The reaction samples were allowed to incubate for 1 h at RT or 37° C. For the whole blood sample, the plasma was extracted from whole blood at the end of reaction. […] These additional samples were diluted 1/60 in PBS and analyzed directly on SDS-PAGE, immunoblot, ELISA, or frozen at −20° C. until use. As positive controls, 50 μM of NHS-LC-biotin (Pierce) and 100 μM of D-biotin were used. Protein assay was performed using BCA kit (Pierce).
Proteins were separated by SDS-PAGE under non-reducing conditions (Laemmli, 1970), transferred to 0.1 μM-pore nitrocellulose sheets (Schleicher and Schuell) and probed with peroxidase labeled streptavidin (Jackson Immuno Research).
Whole blood was incubated with biotin ester for 1 h at room temperature, then plasma was extracted by centrifugation. A 5 μg sample was separated by 8% SDS-PAGE and transferred onto blot. The immunoblot was blocked with 5% skim milk (Nestle) and then incubated with peroxidase labeled-streptavidin diluted at 1/5000 in PBS-BSA 0.5% for 20 min at RT. An ECL kit was used to detect peroxidase labeled-streptavidin on Hyperfilm ECL (Amersham), exposed for 1 min.
A 5 μg portion of each sample was separated by 8% SDS-PAGE and transferred onto blot. The immunoblot was blocked with 5% skim milk (Nestle) and then incubated with peroxidase labeled-streptavidin diluted at 1/5000 in PBS-BSA 0.5% for 20 min at RT. […]

CC(C)C[C@@H](NC(=O)[C@H](Cc1ccccc1)NC(=O)c1ccc(OC(=O)CCCC[C@@H]2SC[C@@H]3NC(=O)N[C@@H]32)cc1)C(=O)N[C@@H](Cc1ccc(O)cc1)C(=O)N[C@@H](CCC(=O)O)C(=O)N[C@@H](CCC(=O)O)C(N)=O [biotin-OPh-CO-FlYEE-NH2] (X1-F[dL]YEE-NH2)
specificity of labeling for pig albumin (immunoblot) (pig albumin): not for pig or dog albumin | rate of biotin addition (optical density vs time, FIG. 10) (HSA [1]): accelerated rate of biotin addition | half-life [2]: ~173 h | half-reaction (commercial human plasma): about 6 min | portion reacted with protein target (commercial human plasma; after five minutes (FIG. 12)): more than half | specificity of labeling for dog albumin (immunoblot) (dog albumin): not for pig or dog albumin | half-reaction (fraction V HSA [3]): about 125 min

HO-Ph-CO-FlYEE-NH2 ({Benzoyl(4-OH)}-F[dL]YEE-NH2) [leaving group liberated from biotin-OPh-CO-FlYEE-NH2]
direct competition with biotin-OPh-CO-FlYEE-NH2 for HSA (FIG. 8) (fraction V HSA [4]; 0-100 molar excess, 44 μM biotin-OPh-CO-FlYEE-NH2, 15 μM HSA, 1 h at 37° C.): occupies a specific binding site on HSA | effect of prior incubation with HSA on binding of biotin-OPh-CO-FlYEE-NH2 (FIG. 9) (fraction V HSA [4]; 0 to 50 molar excess incubated with 15 μM HSA for 1 h, then 44 μM biotin-OPh-CO-FlYEE-NH2 1 h at 37° C.): prevents binding of biotin-OPh-CO-FlYEE-NH2 | effect of competition on rate of reaction (fraction V HSA [4]; between 1 to 5 molar excess of HO-Ph-CO-FlYEE-NH2): very minor effect on the rate of reaction

LC-biotin-OPh-CO-FlYEE-NH2
lysine residue of HSA where LC-biotin is attached (HSA [5]): Lys519

biotin-OPh-CO—NH2 [reference compound]
rate of biotin addition (optical density vs time, FIG. 10) (HSA [1]): on the base line | half-reaction (fraction V HSA [3]): about 330 min | selectivity of labeling (immunoblot, FIG. 7) [6]: does not label selectively
